Experimental data reported in US20250113823A1, “Arthropod Control Compositions” (priority 2022, published 2025).
Where two headings read alike, the source gives them in different places.

System: Aedes aegypti
Assay: Warm Body assay, mosquito landings on treated warm body
Type: in vivo
Conditions: for pest or weed control at 3.2 µg/mL / pest or weed control at 7.1 µg/mL / pest or weed control at 16 µg/mL / pest or weed control at 35.7 µg/mL / pest or weed control at 53 µg/mL / pest or weed control at 80 µg/mL / pest or weed control at 119 µg/mL / pest or weed control at 178 µg/mL / pest or weed control at 267 µg/mL / pest or weed control at 400 µg/mL / pest or weed control at 598 µg/mL / pest or weed control at 890 µg/mL / pest or weed control at 2000 µg/mL / pest or weed control at 4470 µg/mL / pest or weed control at 10000 µg/mL: read-out: Percentage of repellence of mosquitoes Aedes aegypti landing on the warm body; for pest or weed control at 7.1 µg/mL: 0.0071 mg/mL (Table 1); for pest or weed control at 53 µg/mL: 0.053 mg/mL (Table 1); for pest or weed control at 119 µg/mL: 0.119 mg/mL (Table 1); for pest or weed control at 267 µg/mL: 0.267 mg/mL (Table 1); for pest or weed control at 598 µg/mL: 0.598 mg/mL (Table 1); for pest or weed control at 4470 µg/mL: 4.47 mg/mL (Table 1)
Description: The arthropod controlling effect according to the present invention is determined on mosquitoes using an adapted Warm Body assay as defined in Kröber T, Kessler S, Frei J, Bourquin M, Guerin PM. An in vitro assay for testing mosquito controlling compounds employing a warm body and carbon dioxide as a behavioral activator. J Am Mosq Control Assoc. 2010; 26: 381-386. Further information is provided in the accompanying examples
The controlling effect, repellence & spatial repellence, according to the present invention is determined by testing the Warm Body assay against the yellow fever mosquito, Aedes aegypti Rockefeller strain. […] Observations of controlling efficacy were made on host-seeking females of uniform age, 5 to 10 days old selected as mentioned in the publication mentioned hereinabove. Tested hungry females had access to 10% sugar solution but were not blood-fed. Further information is provided in the accompanying examples.
The published protocol has been adapted in not manually counting the landing mosquitoes but automatically using an automatic counting software, the switch from Anopheles gambiae to A. aegypti led to a decrease of mosquitoes' number placed in the tested cage due to the size difference (i.e. 30 mosquitoes instead of 50) and to an increase of lighting as A. aegypti is a diurnal mosquitoes (i.e. 150 lux instead of 4 lux). Further information is provided in the accompanying examples. […]
The controlling effect according to the present invention was assessed using an adapted Warm Body assay as defined in Kröber T, Kessler S, Frei J, Bourquin M, Guerin P M. 2010. J Am Mosq Control Assoc. 26: 381-386. In this in-vitro assay the number of mosquito landing on a warm body, simulating an attractive host treated with the tested stimuli, was measured in order to assess the repellence effect.
The published protocol has been adapted as the switch from Anopheles gambiae to Aedes aegypti led to a decrease of mosquitoes placed in the tested cage due to the size difference (i.e. 30 mosquitoes instead of 50) and to an increase of lighting since A. aegypti is a diurnal mosquitoes (i.e. 150 lux instead of 4 lux).
On the sandblasted glass Petri dish covering the warm body (28.3 cm^2), 100 μL of the compounds diluted at different concentrations in ethanol was applied. The number of mosquito landing on the warm body was counted for each stimulus and pure ethanol (solvent) as control.

[1] = Aedes aegypti, 0.0032 mg/mL (Table 1)
[2] = Aedes aegypti, 0.016 mg/mL (Table 1)
[3] = Aedes aegypti, 0.0357 mg/mL (Table 1)
[4] = Aedes aegypti, 0.08 mg/mL (Table 1)
[5] = Aedes aegypti, 0.178 mg/mL (Table 1)
[6] = Aedes aegypti, 0.4 mg/mL (Table 1)
[7] = Aedes aegypti, 0.89 mg/mL (Table 1)
[8] = Aedes aegypti, 2 mg/mL (Table 1)
[9] = Aedes aegypti, 10 mg/mL (Table 1)
[10] = Aedes aegypti, 0.016 mg/mL (Table 3)
[11] = Aedes aegypti, 0.4 mg/mL (Table 3)
[12] = Aedes aegypti, 10 mg/mL (Table 3)
[13] = Aedes aegypti, highest tested concentration, 1% (Table 3), read-out: repellence

CCCc1ccc2c(c1)OCC(=O)CO2 [compound 465, 7-propyl-1,5-benzoodioxepin-3-one]
Percentage of repellence of mosquitoes Aedes aegypti landing on the warm body (0.016 mg/mL (Table 3)): 4% | Percentage of repellence of mosquitoes Aedes aegypti landing on the warm body (0.4 mg/mL (Table 3)): 36% | Percentage of repellence of mosquitoes Aedes aegypti landing on the warm body (10 mg/mL (Table 3)): 87%

CC=Cc1cc(OC)c(OC)c(OC)c1 [compound 1123, 1,2,3-trimethoxy-5-[1-propen-1-yl]benzene]
pest or weed control at 3.2 µg/mL [1]: 28% | pest or weed control at 7.1 µg/mL (Aedes aegypti): 10% | pest or weed control at 16 µg/mL [2]: 63% | pest or weed control at 35.7 µg/mL [3]: 45% | pest or weed control at 53 µg/mL (Aedes aegypti): 81% | pest or weed control at 80 µg/mL [4]: 67% | pest or weed control at 119 µg/mL (Aedes aegypti): 71% | pest or weed control at 178 µg/mL [5]: 83% | pest or weed control at 267 µg/mL (Aedes aegypti): 90% | pest or weed control at 400 µg/mL [6]: 91% | pest or weed control at 598 µg/mL (Aedes aegypti): 95% | pest or weed control at 890 µg/mL [7]: 90% | pest or weed control at 2000 µg/mL [8]: 98% | pest or weed control at 4470 µg/mL (Aedes aegypti): 100% | pest or weed control at 10000 µg/mL [9]: 98%

CC=Cc1cc(OC)c(O)c(OC)c1 [compound 1124, 2,6-dimethoxy-4-[prop-1-enyl]phenol]
pest or weed control at 3.2 µg/mL [1]: 26% | pest or weed control at 7.1 µg/mL (Aedes aegypti): 40% | pest or weed control at 16 µg/mL [2]: 62% | pest or weed control at 35.7 µg/mL [3]: 0% | pest or weed control at 53 µg/mL (Aedes aegypti): 48% | pest or weed control at 80 µg/mL [4]: 84% | pest or weed control at 119 µg/mL (Aedes aegypti): 35% | pest or weed control at 178 µg/mL [5]: 66% | pest or weed control at 267 µg/mL (Aedes aegypti): 59% | pest or weed control at 400 µg/mL [6]: 78% | pest or weed control at 598 µg/mL (Aedes aegypti): 69% | pest or weed control at 890 µg/mL [7]: 78% | pest or weed control at 2000 µg/mL [8]: 95% | pest or weed control at 4470 µg/mL (Aedes aegypti): 85% | pest or weed control at 10000 µg/mL [9]: 98%

CC=Cc1cc(OC)c(OC)c(OC)c1 [compound 1126, 1,2,3-trimethoxy-5-prop-1-enylbenzene]
pest or weed control at 16 µg/mL [10]: 31% | pest or weed control at 400 µg/mL [11]: 71% | pest or weed control at 10000 µg/mL [12]: 90% | pest or weed control at 1 % [13]: > 90%

CC=Cc1cc(OC)c(O)c(OC)c1 [compound 1127, 2,6-dimethoxy-4-prop-1-enylphenol]
pest or weed control at 3.2 µg/mL (Aedes aegypti, 0.0032 mg/mL (Table 2)): 17% | pest or weed control at 16 µg/mL (Aedes aegypti, 0.016 mg/mL (Table 2)): 1% | pest or weed control at 35.7 µg/mL (Aedes aegypti, 0.0357 mg/mL (Table 2)): 0% | pest or weed control at 80 µg/mL (Aedes aegypti, 0.08 mg/mL (Table 2)): 0% | pest or weed control at 178 µg/mL (Aedes aegypti, 0.178 mg/mL (Table 2)): 30% | pest or weed control at 400 µg/mL (Aedes aegypti, 0.4 mg/mL (Table 2)): 42% | pest or weed control at 890 µg/mL (Aedes aegypti, 0.89 mg/mL (Table 2)): 59% | pest or weed control at 2000 µg/mL (Aedes aegypti, 2 mg/mL (Table 2)): 100% | pest or weed control at 10000 µg/mL (Aedes aegypti, 10 mg/mL (Table 2)): 96%

CC=Cc1cc(OC)ccc1OC [compound 1196, 1,4-dimethoxy-2-[1-propen-1-yl]benzene]
pest or weed control at 16 µg/mL (Aedes aegypti): 57% | pest or weed control at 400 µg/mL (Aedes aegypti): 74% | pest or weed control at 10000 µg/mL (Aedes aegypti): 86% | pest or weed control at 0.0016 % (Aedes aegypti, read-out: reduce the number of mosquito landings): > 50%

COc1ccc(O)c(OC)c1OC [compound 1204, 2,3,4-trimethoxyphenol]
pest or weed control at 16 µg/mL [10]: 46% | pest or weed control at 400 µg/mL [11]: 83% | pest or weed control at 10000 µg/mL [12]: 92% | pest or weed control at 1 % [13]: > 90% | pest or weed control at 0.04 % (Aedes aegypti, intermediate concentration of 0.04% (Table 3), read-out: repellence): > 75%

CCOc1cc(C)ccc1O [compound 1303, 2-ethoxy-4-methylphenol]
pest or weed control at 16 µg/mL [10]: 16% | pest or weed control at 400 µg/mL [11]: 21% | pest or weed control at 10000 µg/mL [12]: 100% | pest or weed control at 1 % [13]: > 90% | mosquito landing within the two minutes of experiments (highest tested concentration, 1% (Table 3)): protect the attractive stimulus for any mosquito landing
